The assay concerns IL-6. The assay is described as follows: Human monocyte assay, LPS-stimulated IL-6. As to conditions: human monocytes, 1 μg/ml LPS, 5 hours. In kind it is cell-based. The procedure:
The assay was designed as in the reference, Physiol.
Peripheral blood mononuclear cells (hPBMC) were harvested from human blood and suspended in RPMI 1640 culture medium containing 10% FCS, 100 U/mL penicillin and […] streptomycin (assay medium). Monocytes in the hPBMCs were counted using a Coulter Counter following which the cells were resuspended at 2×10^5 monocytes/mL. A cell suspension containing 2×10^4 monocytes was aliquoted per well of a 96-well plate. Subsequently, the hPBMCs were incubated for 4-5 hours at 37° C., 5% CO2 (During the incubation, the monocytes adhered to the bottom of 96-well plastic culture plate). Following the incubation, the non-adherent lymphocytes were washed with assay medium and the adherent monocytes re-fed with assay medium. After a 48-hour incubation period (37° C., 5% CO2), monocytes were pretreated with various concentrations of representative compounds of present invention (refer to table 6 and 7) (prepared in DMSO) or vehicle (0.5% DMSO) for 30 minutes and stimulated with 1 μg/ml LPS (Escherchia coli 0111:B4, Sigma Chemical Co., St. Louis, Mo.). The incubation was continued for 5 hours at 37° C., 5% CO2. Supernatants were harvested, assayed for IL-6 and TNF-α by ELISA as described by the manufacturer (BD Biosciences, USA). Dexamethasone (10 μM) was used as standard for this assay. […] Biological results for both IL-6 and TNFα are indicated in Table 6 and Table 7 respectively.

Take `Cc1cc(-c2cccnc2)cn2c(/C=N/N(C)S(=O)(=O)c3cccc([N+](=O)[O-])c3)cnc12` [Example 109, (E)-N-methyl-N′-((8-methyl-6-(pyridin-3-yl)imidazo[1,2-a]pyridin-3-yl)methylene)-3-nitrobenzenesulfonohydrazide]: where the note is “Monocyte”, the IC50 is ≥ 5 µM. In the case of `Cc1nc(S(=O)(=O)N(C)/N=C/c2cnc3ccc(-c4cccnc4)cn23)cn1C` [Example 42, (E)-N, 1,2-trimethyl-N′-((6-(pyridin-3-yl)imidazo[1,2-a]pyridin-3-yl)methylene)-1H-imidazole-4-sulfonohydrazide], the IC50 (Monocyte) was ≥ 5 µM. On to `CN(/N=C/c1cnc2ccc(-c3cccnc3)cn12)S(=O)(=O)c1ccc(F)cc1Br` [Example 36, (E)-2-bromo-4-fluoro-N-methyl-N′-((6-(pyridin-3-yl)imidazo[1,2-a]pyridin-3-yl)methylene)benzenesulfonohydrazide], for which the IC50 (Monocyte) was ≥ 5 µM.

Regarding `COc1ccc(Cl)cc1S(=O)(=O)N(C)/N=C/c1cnc2ccc(-c3cccnc3)cn12` [Example 55, (E)-5-chloro-2-methoxy-N-methyl-N′-((6-(pyridin-3-yl)imidazo[1,2-a]pyridin-3-yl)methylene) benzenesulfonohydrazide], the IC50 (Monocyte) lay in the range of 0.001 to 5 µM. With `Cc1ccc(S(C)(=O)=O)cc1S(=O)(=O)N(C)/N=C/c1cnc2ccc(-c3cccnc3)cn12` [Example 63, (E)-N,2-dimethyl-5-(methylsulfonyl)-N′-((6-(pyridin-3-yl)imidazo[1,2-a]pyridin-3-yl)methylene) benzenesulfonohydrazide], the IC50 (Monocyte) is 0.001 to 5 µM. Consider `Cc1cc(-c2cccnc2)cn2c(/C=N/N(C)S(=O)(=O)c3cccc(Cl)c3)cnc12` [Example 110, (E)-3-Chloro-N-methyl-N′-((8-methyl-6-(pyridin-3-yl)imidazo[1,2-a]pyridin-3-yl)methylene)benzenesulfonohydrazide], for which, where the note is “Monocyte”, the IC50 is ≥ 5 µM.

Take `CN(/N=C/c1cnc2ccc(-c3cccnc3)cn12)S(=O)(=O)c1cccc(Cl)c1` [Example 39, (E)-3-chloro-N-methyl-N′-((6-(pyridin-3-yl)imidazo[1,2-a]pyridin-3-yl)methylene)benzenesulfonohydrazide]: under “Monocyte”, the IC50 was in the range of 0.001 to 5 µM.

Turning to `CN(/N=C/c1cnc2ccc(-c3cccnc3)cn12)C(=S)NCCN1CCOCC1` [Example 148], the IC50 was ≥ 5 µM.

Regarding `CN(/N=C/c1cnc2ccc(-c3cccnc3)cn12)S(=O)(=O)c1ccccc1Br` [Example 64, (E)-2-bromo-N-methyl-N′-((6-(pyridin-3-yl)imidazo[1,2-a]pyridin-3-yl)methylene) benzenesulfonohydrazide], the IC50 (Monocyte) fell in the range of 0.001 to 5 µM. Same read-out and setting: as for `Cc1cc(S(=O)(=O)N(C)/N=C/c2cnc3ccc(-c4cccnc4)cn23)c(C)cc1Cl` [Example 43, (E)-4-chloro-N, 2,5-trimethyl-N′-((6-(pyridin-3-yl)imidazo[1,2-a]pyridin-3-yl)methylene) benzenesulfonohydrazide], the figure is ≥ 5 µM; as for `Cc1cc(S(=O)(=O)N(C)/N=C/c2cnc3c(C)cc(-c4cccnc4)cn23)ccc1Br` [Example 107, (E)-4-Bromo-N,3-dimethyl-N′-((8-methyl-6-(pyridin-3-yl)imidazo[1,2-a]pyridin-3-yl)methylene)benzenesulfonohydrazide], 0.001 to 5 µM. On the same count and under the same terms, as for `Cc1ccc(C)c(S(=O)(=O)N(C)/N=C/c2cnc3ccc(-c4cccnc4)cn23)c1` [Example 50, (E)-N, 2,5-trimethyl-N′-((6-(pyridin-3-yl)imidazo[1,2-a]pyridin-3-yl)methylene)benzenesulfonohydrazide], the figure is 0.001 to 5 µM; as for `CN(/N=C/c1cnc2ccc(-c3cccnc3)cn12)S(=O)(=O)c1ccccc1S(C)(=O)=O` [Example 59, (E)-N-methyl-2-(methylsulfonyl)-N′-((6-(pyridin-3-yl)imidazo[1,2-a]pyridin-3-yl)methylene) benzenesulfonohydrazide], 0.001 to 5 µM; as for `Cc1ccc(-c2ccc3ncc(/C=N/N(C)S(=O)(=O)c4cc(F)ccc4C)n3c2)cn1` [Example 128, (E)-5-fluoro-N,2-dimethyl-N′-((6-(6-methylpyridin-3-yl)imidazo[1,2-a]pyridin-3-yl)methylene)benzenesulfonohydrazide], 0.001 to 5 µM. Still for that read-out and setting: in the case of `CN1CCOc2cc(S(=O)(=O)N(C)/N=C/c3cnc4ccc(-c5cccnc5)cn34)cnc21` [Example 68, (E)-N,4-dimethyl-N′-((6-(pyridin-3-yl)imidazo[1,2-a]pyridin-3-yl)methylene)-3,4-dihydro-2H-pyrido[3,2-b][1,4]oxazine-7-sulfonohydrazide] it was 0.001 to 5 µM; in that of `CN(/N=C/c1cnc2ccc(-c3cccnc3)cn12)S(=O)(=O)c1ccccc1Oc1ccccc1` [Example 60, (E)-N-methyl-2-phenoxy-N′-((6-(pyridin-3-yl)imidazo[1,2-a]pyridin-3-yl)methylene)benzenesulfonohydrazide], 0.001 to 5 µM; in that of `Cc1ccc(-c2ccc3ncc(/C=N/N(C)S(=O)(=O)c4ccccc4OC(F)(F)F)n3c2)cn1` [Example 129, (E)-N-methyl-N′-((6-(6-methylpyridin-3-yl)imidazo[1,2-a]pyridin-3-yl)methylene)-2-(trifluoromethoxy)benzenesulfonohydrazide], ≥ 5 µM.

With `CN(/N=C/c1cnc2ccc(-c3cccnc3)cn12)S(=O)(=O)c1ccc(C(F)(F)F)cc1Cl` [Example 40, (E)-2-chloro-N-methyl-N′-((6-(pyridin-3-yl)imidazo[1,2-a]pyridin-3-yl)methylene)-4-(trifluoromethyl)benzenesulfonohydrazide], the 50% inhibitory concentration (IC50) (Monocyte) is 0.001 to 5 µM.

Turning to `COC(=O)c1ccc(S(=O)(=O)N(C)/N=C/c2cnc3ccc(-c4cccnc4)cn23)n1C` [Example 67, (E)-Methyl 1-methyl-5-(1-methyl-2-((6-(pyridin-3-yl)imidazo[1,2-a]pyridin-3-yl)methylene) hydrazinylsulfonyl)-1H-pyrrole-2-carboxylate], the IC50 (Monocyte) fell in the range of 0.001 to 5 µM.

For the compound `COC(=O)c1ccc(S(=O)(=O)N(C)/N=C/c2cnc3ccc(-c4cccnc4)cn23)o1` [Example 73, (E)-Methyl 5-(1-methyl-2-((6-(pyridin-3-yl)imidazo[1,2-a]pyridin-3-yl)methylene) hydrazinylsulfonyl) furan-2-carboxylate], the IC50 is ≥ 5 µM. Compound `CN(/N=C/c1cnc2ccc(-c3cccnc3)cn12)S(=O)(=O)c1cc(C(F)(F)F)ccc1Br` [Example 57, (E)-2-bromo-N-methyl-N′-((6-(pyridin-3-yl)imidazo[1,2-a]pyridin-3-yl)methylene)-5-(trifluoromethyl)benzenesulfonohydrazide] gave a half-inhibitory concentration (IC50) (Monocyte) of 0.001 to 5 µM. For `CN(N=Cc1cnc2ccc(Br)cn12)C(=O)NCc1ccccc1` [Example 145, N-benzyl-2-((6-bromoimidazo[1,2-a]pyridin-3-yl)methylene)-1-methylhydrazinecarboxamide], the IC50 (Monocyte) fell in the range of 0.001 to 5 µM. Consider `COc1ncc(-c2ccc3ncc(/C=N/N(C)S(=O)(=O)c4cc(F)ccc4C)n3c2)cn1` [Example 138, (E)-5-Fluoro-N-((6-(2-methoxypyrimidin-5-yl)imidazo[1,2-a]pyridine-3-yl)methylene)-N, 2-dimethylbenzenesulfonohydrazide], for which the IC50 was ≥ 5 µM.
